According to ChEMBL document CHEMBL5325395, “Design, synthesis and anti-ovarian cancer activities of thieno[2,3-d]pyrimidine based chimeric BRD4 inhibitor/nitric oxide-donator” (Eur J Med Chem, 2023):
Calls of active or inactive are those of the source. No cut-off for these calls is given here.

What was measured:
[1] = molecular target: T1, Bromodomain-containing protein 2 (Homo sapiens, UniProt P25440); test: Inhibition of BRD2 bromodomain 2 (unknown origin) by Alphascreen based method
[2] = molecular target: T2, Bromodomain-containing protein 3 (Homo sapiens, UniProt Q15059); test: Inhibition of BRD3 bromodomain 1 (unknown origin) by Alphascreen based method
T2 sequence (Q15059 whole entry): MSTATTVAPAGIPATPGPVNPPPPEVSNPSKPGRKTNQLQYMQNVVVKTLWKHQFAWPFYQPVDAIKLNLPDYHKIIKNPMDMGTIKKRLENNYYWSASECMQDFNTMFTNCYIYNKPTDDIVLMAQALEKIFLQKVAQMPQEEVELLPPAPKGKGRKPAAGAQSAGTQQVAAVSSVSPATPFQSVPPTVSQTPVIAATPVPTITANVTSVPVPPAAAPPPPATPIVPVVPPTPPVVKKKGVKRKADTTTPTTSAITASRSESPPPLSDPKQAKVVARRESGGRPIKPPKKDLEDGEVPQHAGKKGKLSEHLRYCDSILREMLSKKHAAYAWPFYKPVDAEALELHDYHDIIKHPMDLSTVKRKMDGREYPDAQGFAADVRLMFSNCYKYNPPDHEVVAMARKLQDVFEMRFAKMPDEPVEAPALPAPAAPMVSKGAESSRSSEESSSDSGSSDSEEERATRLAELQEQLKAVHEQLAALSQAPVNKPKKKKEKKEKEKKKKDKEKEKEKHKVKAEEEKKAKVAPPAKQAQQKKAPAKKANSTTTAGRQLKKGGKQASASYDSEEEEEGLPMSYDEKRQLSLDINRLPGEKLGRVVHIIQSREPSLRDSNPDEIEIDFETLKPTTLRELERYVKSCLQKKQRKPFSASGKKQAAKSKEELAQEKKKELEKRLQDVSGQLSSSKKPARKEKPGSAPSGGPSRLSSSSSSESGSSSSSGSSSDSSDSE

SK-OV-3 [3] = test: Induction of autophagy in human SK-OV-3 cells assessed as appearance of autophagic vacuoles incubated for 24 hrs by transmission electron microscopy analysis; assay type: functional, cell-based
[4] = molecular target: T1, Bromodomain-containing protein 2; test: Inhibition of BRD2 bromodomain 1 (unknown origin) by Alphascreen based method
[5] = Induction of NO release in phosphate buffer at 6 hrs by Griess reagent based spectrophotometer analysis; assay type: functional
[6] = Induction of NO release in phosphate buffer at 4 hrs by Griess reagent based spectrophotometer analysis; assay type: functional
OVCAR-3 = test: Antiproliferative activity against human OVCAR-3 cells assessed as reduction in cell viability incubated for 24 hrs by CCK8 assay; assay type: functional, cell-based; conditions: OVCAR-3, 24 h
[7] = molecular target: T1, Bromodomain-containing protein 2; test: Binding affinity to BRD2 BD2 (unknown origin) by thermal denaturation assay
A2780 = test: Antiproliferative activity against human A2780 cells assessed as reduction in cell viability incubated for 24 hrs by CCK8 assay; assay type: functional, cell-based; conditions: A2780, 24 h
SK-OV-3 [8] = test: Induction of autophagy in human SK-OV-3 cells assessed as GFP-LC3 aggregation incubated for 24 hrs by transmission electron microscopy analysis; assay type: functional, cell-based
[9] = Induction of NO release in phosphate buffer at 3 hrs by Griess reagent based spectrophotometer analysis; assay type: functional
SK-OV-3 [10] = test: Induction of apoptosis in human SK-OV-3 cells assessed as late apoptotic cells at 1 uM incubated for 24 hrs by Annexin V and PI staining based flow cytometry analysis (reference value: 0 %); assay type: functional
SK-OV-3 [11] = test: Induction of autophagy in human SK-OV-3 cells assessed as appearance of autophagic vacuoles incubated for 24 hrs by confocal fluorescence microscopy analysis; assay type: functional, cell-based
SK-OV-3 [12] = test: Induction of autophagy in human SK-OV-3 cells assessed as increase in autophagosomes at 2 umol/L incubated for 24 hrs by immunofluorescence analysis; assay type: functional, cell-based; conditions: dose 2.0 µmol/L
SK-OV-3 [13] = test: Induction of apoptosis in human SK-OV-3 cells assessed as upregulation of cytochrome-C protein expression at 1 to 2 uM incubated for 24 hrs by Western blotting analysis; assay type: functional, cell-based; conditions: dose 1-2 µM
SK-OV-3 [14] = test: Antiproliferative activity against human SK-OV-3 cells assessed as reduction in cell viability incubated for 24 hrs by CCK8 assay; assay type: functional, cell-based; conditions: SK-OV-3, 24 h
SK-OV-3 [15] = test: Antitumor activity against human SK-OV-3 cells xenografted in BALB/c nude mouse assessed as increase in tumor cell apoptosis at 30 mg/kg, ip administered for 19 days by TUNEL staining based analysis; assay type: functional, organism-based; conditions: time 19.0 day
SK-OV-3 [16] = test: Induction of apoptosis in human SK-OV-3 cells assessed as early apoptotic cells at 1 uM incubated for 24 hrs by Annexin V and PI staining based flow cytometry analysis (reference value: 0.020 %); assay type: functional
SK-OV-3 [17] = test: Induction of apoptosis in human SK-OV-3 cells assessed as upregulation of Beclin1 protein expression at 1 to 2 uM incubated for 24 hrs by Western blotting analysis; assay type: functional, cell-based; conditions: dose 1-2 µM
SK-OV-3 [18] = test: Induction of apoptosis in human SK-OV-3 cells assessed as viable cells at 2 uM incubated for 24 hrs by Annexin V and PI staining based flow cytometry analysis (reference value: 99.8 %); assay type: functional; conditions: read-out: Activity
[19] = Induction of NO release in phosphate buffer at 1 hr by Griess reagent based spectrophotometer analysis; assay type: functional
SK-OV-3 [20] = test: Induction of apoptosis in human SK-OV-3 cells assessed as upregulation of p62/SQSTM1 protein expression at 1 to 2 uM incubated for 24 hrs by Western blotting analysis; assay type: functional, cell-based; conditions: dose 1-2 µM
SK-OV-3 [21] = test: Induction of apoptosis in human SK-OV-3 cells assessed as necrotic cells at 1 uM incubated for 24 hrs by Annexin V and PI staining based flow cytometry analysis (reference value: 0.15 %); assay type: functional
[22] = molecular target: T3, Bromodomain-containing protein 4 (Homo sapiens, UniProt O60885); test: Inhibition of BRD4 (unknown origin)
[23] = molecular target: T3, Bromodomain-containing protein 4; test: Inhibition of BRD4 in human SK-OV-3 cells assessed as reduction in c-Myc protein expression by Western blot analysis; assay type: cell-based
[24] = molecular target: T2, Bromodomain-containing protein 3; test: Inhibition of BRD3 bromodomain 2 (unknown origin) by Alphascreen based method
Mus musculus = test: In vivo inhibition of BRD4 in BALB/c nude mouse xenografted with human SK-OV-3 cells assessed as reduction in c-Myc expression at 30 mg/kg, ip administered for 19 days by immunohistochemical analysis; assay type: functional, organism-based; conditions: time 19.0 day
[25] = molecular target: Bromodomain testis-specific protein (Homo sapiens, UniProt Q58F21); test: Inhibition of BRDT bromodomain 1 (unknown origin) by Alphascreen based method
SK-OV-3 [26] = test: Antitumor activity against human SK-OV-3 cells xenografted in BALB/c nude mouse assessed as reduction in Ki-67 expression at 30 mg/kg, ip administered for 19 days by immunohistochemical analysis; assay type: functional, organism-based; conditions: time 19.0 day
[27] = Induction of NO release in phosphate buffer at 2 hrs by Griess reagent based spectrophotometer analysis; assay type: functional
SK-OV-3 [28] = test: Induction of apoptosis in human SK-OV-3 cells assessed as necrotic cells at 2 uM incubated for 24 hrs by Annexin V and PI staining based flow cytometry analysis (reference value: 0.15 %); assay type: functional
SK-OV-3 [29] = test: Antitumor activity against human SK-OV-3 cells xenografted in Balb/c nude mouse assessed as tumor growth inhibition at 30 mg/kg, ip administered for 19 days; assay type: functional, organism-based; conditions: time 19.0 day
[30] = Induction of NO release in phosphate buffer at 24 hrs by Griess reagent based spectrophotometer analysis; assay type: functional
[31] = molecular target: T3, Bromodomain-containing protein 4; test: Binding affinity to BRD4 BD2 (unknown origin) by thermal denaturation assay
[32] = molecular target: T3, Bromodomain-containing protein 4; test: Binding affinity to BRD4 BD1 (unknown origin) by thermal denaturation assay
SK-OV-3 [33] = test: Induction of autophagy in human SK-OV-3 cells assessed as reduction in GFP-LC3 labeled lysosomes at 2 umol/L incubated for 24 hrs by immunofluorescence analysis; assay type: functional, cell-based; conditions: dose 2.0 µmol/L
SK-OV-3 [34] = test: Induction of apoptosis in human SK-OV-3 cells assessed as upregulation of cleaved caspase 3 protein expression at 1 to 2 uM incubated for 24 hrs by Western blotting analysis; assay type: functional, cell-based; conditions: dose 1-2 µM
SK-OV-3 [35] = test: Induction of apoptosis in human SK-OV-3 cells assessed as late apoptotic cells at 2 uM incubated for 24 hrs by Annexin V and PI staining based flow cytometry analysis (reference value: 0 %); assay type: functional
ES-2 = test: Antiproliferative activity against human ES2 cells assessed as reduction in cell viability incubated for 24 hrs by CCK8 assay; assay type: functional, cell-based; conditions: ES-2, 24 h
SK-OV-3 [36] = test: Induction of apoptosis in human SK-OV-3 cells assessed as early apoptotic cells at 2 uM incubated for 24 hrs by Annexin V and PI staining based flow cytometry analysis (reference value: 0.020 %); assay type: functional
[37] = molecular target: T3, Bromodomain-containing protein 4; test: Inhibition of BRD4 bromodomain 2 (unknown origin) by Alphascreen based method
SK-OV-3 [38] = test: Induction of apoptosis in human SK-OV-3 cells assessed as upregulation of LC3II/I protein expression at 1 to 2 uM incubated for 24 hrs by Western blotting analysis; assay type: functional, cell-based; conditions: dose 1-2 µM
SK-OV-3 [39] = test: Induction of autophagy in human SK-OV-3 cells assessed as GFP-LC3 aggregation incubated for 24 hrs by confocal fluorescence microscopy analysis; assay type: functional, cell-based
[40] = molecular target: T3, Bromodomain-containing protein 4; test: Inhibition of BRD4 in human SK-OV-3 cells assessed as reduction in BRD4 protein expression by Western blot analysis; assay type: cell-based
SW626 = test: Antiproliferative activity against human SW626 cells assessed as reduction in cell viability incubated for 24 hrs by CCK8 assay; assay type: functional, cell-based; conditions: SW626, 24 h
[41] = molecular target: T1, Bromodomain-containing protein 2; test: Binding affinity to BRD2 BD1 (unknown origin) by thermal denaturation assay
SK-OV-3 [42] = test: Induction of apoptosis in human SK-OV-3 cells assessed as viable cells at 1 uM incubated for 24 hrs by Annexin V and PI staining based flow cytometry analysis (reference value: 99.8 %); assay type: functional; conditions: read-out: Activity
[43] = molecular target: T3, Bromodomain-containing protein 4; test: Inhibition of BRD4 bromodomain 1 (unknown origin) by Alphascreen based method
SK-OV-3 [44] = test: Induction of autophagy in human SK-OV-3 cells assessed as reduction in LAMP1 labeled lysosomes at 2 umol/L incubated for 24 hrs by immunofluorescence analysis; assay type: functional, cell-based; conditions: dose 2.0 µmol/L
[45] = Induction of NO release in phosphate buffer at 0.5 hrs by Griess reagent based spectrophotometer analysis; assay type: functional
[46] = Toxicity in BALB/c mouse xenografted with human SK-OV-3 cells assessed as change in body weight at 30 mg/kg, ip administered for 19 days; assay type: organism-based; conditions: in vivo, 456 h, time 19 day
SK-OV-3 [47] = test: Induction of apoptosis in human SK-OV-3 cells assessed as downregulation of Bcl-2 protein expression at 1 to 2 uM incubated for 24 hrs by Western blotting analysis; assay type: functional, cell-based; conditions: dose 1-2 µM

T1 sequence (P25440 whole entry): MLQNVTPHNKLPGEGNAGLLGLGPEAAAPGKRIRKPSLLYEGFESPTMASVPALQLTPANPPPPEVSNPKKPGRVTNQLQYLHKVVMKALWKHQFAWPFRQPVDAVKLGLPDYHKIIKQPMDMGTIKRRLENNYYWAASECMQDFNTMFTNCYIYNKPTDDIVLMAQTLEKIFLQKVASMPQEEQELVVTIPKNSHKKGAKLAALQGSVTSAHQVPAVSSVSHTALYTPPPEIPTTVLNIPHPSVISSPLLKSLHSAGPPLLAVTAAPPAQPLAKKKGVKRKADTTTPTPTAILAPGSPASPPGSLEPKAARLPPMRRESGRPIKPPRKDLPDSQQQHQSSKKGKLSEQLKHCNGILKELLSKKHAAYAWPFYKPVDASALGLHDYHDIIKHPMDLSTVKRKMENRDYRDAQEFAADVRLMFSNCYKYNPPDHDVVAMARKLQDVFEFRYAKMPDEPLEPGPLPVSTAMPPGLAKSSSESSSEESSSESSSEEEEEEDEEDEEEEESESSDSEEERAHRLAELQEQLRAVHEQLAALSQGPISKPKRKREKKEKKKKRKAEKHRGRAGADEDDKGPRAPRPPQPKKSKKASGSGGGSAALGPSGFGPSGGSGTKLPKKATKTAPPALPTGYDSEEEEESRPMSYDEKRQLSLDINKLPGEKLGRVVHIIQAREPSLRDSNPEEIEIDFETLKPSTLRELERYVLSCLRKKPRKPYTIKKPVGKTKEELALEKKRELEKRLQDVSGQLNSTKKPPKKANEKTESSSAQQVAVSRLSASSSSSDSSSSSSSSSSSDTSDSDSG

Cc1cc(-c2nc3sc4c(c3c(=O)[nH]2)CCN(C)C4)cc(C)c1OCC(=O)OCc1c(-c2ccccc2)no[n+]1[O-]
IC50 [1]: > 20 µM | IC50 [2]: > 20 µM | Activity (SK-OV-3 [3]): Active | IC50 [4]: 15.9 µM | Activity [5]: 0.111 µmol/L | Activity [6]: 0.095 µmol/L | IC50 (OVCAR-3): 2.69 µM | Kd [7]: 17.5 µM | IC50 (A2780): 3.44 µM | Activity (SK-OV-3 [8]): Active | Activity [9]: 0.072 µmol/L | Activity (SK-OV-3 [10]): 4.5% | Activity (SK-OV-3 [11]): Active | Activity (SK-OV-3 [12]): Active | Activity (SK-OV-3 [13]): Active | IC50 (SK-OV-3 [14]): 1.38 µM | Activity (SK-OV-3 [15]): Active | Activity (SK-OV-3 [16]): 6.15% | Activity (SK-OV-3 [17]): Active | viability at 2 µM (SK-OV-3 [18]): 85.1% | Activity [19]: 0.055 µmol/L | Activity (SK-OV-3 [20]): Active | Activity (SK-OV-3 [21]): 1.2% | IC50 [22]: 0.82 µM | inhibition [23]: Active | IC50 [24]: > 20 µM | inhibition (Mus musculus): Active | IC50 [25]: > 20 µM | Activity (SK-OV-3 [26]): Active | Activity [27]: 0.054 µmol/L | Activity (SK-OV-3 [28]): 1.03% | Activity (SK-OV-3 [29]): Active | Activity [30]: 0.258 µmol/L | Kd [31]: 0.686 µM | Kd [32]: 0.419 µM | Activity (SK-OV-3 [33]): Active | Activity (SK-OV-3 [34]): Active | Activity (SK-OV-3 [35]): 5.21% | IC50 (ES-2): 3.44 µM | Activity (SK-OV-3 [36]): 8.84% | IC50 [37]: 1.94 µM | Activity (SK-OV-3 [38]): Active | Activity (SK-OV-3 [39]): Active | inhibition [40]: Active | IC50 (SW626): 8.47 µM | Kd [41]: 7.43 µM | viability at 1 µM (SK-OV-3 [42]): 88.9% | IC50 [43]: 0.82 µM | Activity (SK-OV-3 [44]): Active | Activity [45]: 0.061 µmol/L | Activity [46]: Non-Toxic | Activity (SK-OV-3 [47]): Active
